The numbers were not newly measured in patent publication US20220175758A1, “COMPOSITIONS AND METHODS TO TREAT NON-ALCOHOLIC FATTY LIVER DISEASES (NAFLD)” (Coherus Biosciences, Inc., priority 2019, published 2022), which cites them from elsewhere.

For this data set the following is noted: monotherapy.

Consider `Cc1cc(F)c(C(=O)Nc2cccc(-c3nncn3C(C)C)n2)cc1-n1cnc(C2CC2)c1` [selonsertib], for which the “primary endpoint of the STELLAR-4 phase 3 clinical trial” value is listed as “failed to meet the primary endpoint”.
